From US12351830B2, “Method for maintaining and amplifying colon cancer stem cells and method for inducing colon cancer organoid” (NATIONAL UNIVERSITY CORPORATION KOBE UNIVERSITY, priority 2017, dated 2025) come the findings set out here.

Format in all cases: cell-based, human
In data set [1] the test system is 2nd V50-OKS cells. The data set is described as follows: flat plane adhesion culture of induced colon cancer stem cells, cell count and morphology. As to conditions: for effect in flat plane adhesion culture (morphology, number of cells): VPA 1 mM, CHIR99021 3 μM, 5 days. How it is done:
A human colon cancer cell line (SW480) and Plat-A amphotropic retrovirus packaging cells were obtained from the ATCC collection and Cell Biolabs (San Diego, CA, USA), respectively. Both cells were maintained in Dulbecco's modified Eagle's medium (DMEM) (Nacalai Tesque, Kyoto, Japan) supplemented with 10% fetal bovine serum (FBS) (Life Technologies) and penicillin (100 Units/ml) and streptomycin (100 μg/ml) (Life Technologies) at 37° C. in a humidified 5% […] incubator. In Plat-A culture, 1 μg/ml of puromycin (Nacalai Tesque) and 10 μg/ml of blasticidin (Funakoshi) were added. HUVECs (Lonza) and human MSCs (Lonza) were maintained in endothelial growth medium (Lonza) at 37° C. in a humidified 5% CO2 incubator. The cells were treated with FK506 (Sigma, 25 μM), VPA (WAKO, 1 mM) or CHIR99021 (Funakoshi, 3 μM) for 5 days. Thereafter, the cells were detached from the culture dish by an enzyme treatment, dispersed and the number of the cells was counted with Countess system (Invitrogen). The human induced pluripotent stem (hiPS) cells used as a control were generated from human peripheral blood mononuclear cells in the laboratory.
Culture of SW480 cells after introduction of reprogramming factor, isolation of induced colon cancer stem cell (hereinafter to be also referred to as “colon iCSC”)-enriched cell population and induction of colon cancer organoid were performed according to the schedule described in FIG. 6. Establishing culture of colon iCSC and sorting of colon iCSC-enriched cell population were performed according to the method described in the above-mentioned non-patent document 3 (flow cytometry utilizing Hoechst33342 eliminating ability in the presence of 50 μM verapamil). Hereinafter colon iCSC-enriched cell population (cell population not labeled with Hoechst33342 in the presence of 50 μM verapamil; V50 cell) obtained by the first sorting is sometimes to be abbreviated as 1st V50 cell (or 1st V50-OKS cell), and the V50 cell obtained by the second sorting is sometimes to be abbreviated as 2nd V50 cell (or 2nd V50-OKS cell). On the other hand, the cell population labeled with Hoechst33342 in the presence of 50 μM verapamil is sometimes to be abbreviated as non V50cell or non V50-OKS cell. Colon cancer organoid was induced by the method described in the below-mentioned sphere formation assay.
SW480 cells or 2nd V50 cells were subjected to flat plane adhesion culture in the presence of FK506 (Sigma) for 5-15 days, and the cell number was counted with Countess (Invitrogen) system. Alternatively, the cells were subjected to flat plane adhesion culture in the presence of FK506, and then suspension culture in the presence or absence of FK506 to form spheres. The sphere number was counted with Countess (Invitrogen) system. Unless otherwise specified, FK506 was used at a concentration of 25 μM in this Example.
Duplexed Stealth siRNA (Invitrogen) were used for reference examples and were transduced to the cells according to the manufacturer's protocol.

In data set [2] the test system is NFATc3-GFP. The data set is described as follows: localization of NFATc3-GFP in 2nd V50-OKS cells. As to conditions: 2nd V50-OKS cells treated with compound. The source says:
Retroviral vectors separately encoding OCT3/4, SOX2 or KLF4 in pMXs based vectors (pMXs-OCT3/4, pMXs-SOX2, pMXs-KLF4) were obtained from Addgene. Therefore, using these vectors, the polycistronic retroviral vector encoding OCT3/4, KLF4 and SOX2 (pMXs-OKS) was designed. That is, human OCT3/4, KLF4 and SOX2 were amplified by polymerase chain reaction (PCR) with primers containing the 2A sequences of Thosea asigna virus (T2A) and cloned into EcoRI site of pMXs vector using the In-fusion HD cloning system (Clontech). To generate pMXs-NFATc3-GFP construct, NFATc3-GFP cDNA were PCR amplified using HA-NFAT4 (3-407)-GFP (purchased from Addgene #21664) as a template and cloned into EcoRI-Notl site of pMXs-vector).
Finally, the cellular localization of NFAT after the treatment of FK506, VPA and CHIR in the iCSCs was examined. NFATc3 fused to green fluorescent protein (NFATc3-GFP; Aramburu J, et al., Science, 1999; 285:2129-33, Peuker K, et al., Nat Med, 2016, 22:506-15) was retrovirally introduced into 2nd V50-OKS cells. In the 2nd V50-OKS cells without any compounds and those with FK506, it was observed that NFATc3-GFP localized in the cytoplasm. In contrast, localization of NFATc3-GFP was found in the nuclei of the 2nd V50-OKS cells treated with VPA and CHIR (FIG. 16). […] This is opposite to inhibition of calcineurin via cytoplasm-nuclear translocation of NFAT.

Data set [3] concerns 2nd V50 cells. As to the kind of experiment: colony formation assay. As to conditions: 1 mM VPA, 3 μM CHIR or 25 μM FK506, day 12. The protocol: 2nd VP50 cells produced by 3 independent experiments were seeded in a 6 well plate at a density of 2×10^3 cells/well. The next day, the medium was changed to a medium not added with the compound, or a medium added with 1 mM VPA, 3 μM CHIR or 25 μM FK506. Thereafter, the medium was changed every 2 days or 3 days. On day 12, the cells were fixed with methanol, stained with crystal violet and the colonies were counted using a stereoscopic microscope.

The test system of data set [4] is 2nd V50-OKS cells. As to the kind of experiment: sphere formation assay, induced colon cancer stem cells. The conditions noted are these: VPA 1 mM, CHIR99021 3 μM, 10 days. The protocol: The cells were transferred to Ultra Low Attachment plates (Corning) in serum-free DMEM containing 10 ng/ml bFGF (WAKO), 10 μg/ml human insulin (CST), 100 μg/ml human transferrin (Roche) and 100 μg/ml BSA (Nacalai Tesque), and incubated at 37° C. in a 5% CO2 incubator for 10 days. The sphere count was calculated based on the sphere size which was larger than 100 μm. FK506 (25 μM), VPA (1 mM) or CHIR99021 (3 μM) were added to the medium and the spheres were then treated for 10 days. SW480 cells or 2nd V50 cells were subjected to flat plane adhesion culture in the presence of FK506 (Sigma) for 5-15 days, and the cell number was counted with Countess (Invitrogen) system. Alternatively, the cells were subjected to flat plane adhesion culture in the presence of FK506, and then suspension culture in the presence or absence of FK506 to form spheres. The sphere number was counted with Countess (Invitrogen) system. Unless otherwise specified, FK506 was used at a concentration of 25 μM in this Example.

Data set [5] deals with 2nd V50-OKS-SW480 cells. As to the kind of experiment: 5-FU-chemoresistance analysis. The conditions noted are these: 1 and 50 μg/ml 5-FU, 72 hr, relative to cells without 5-FU, n=3. How it is done: A total of 6×10^4 cells were seeded in 12-well plates with DMEM containing 0, 1, 50 μg/ml of 5-fluorouracil (5-FU, Kyowa Kirin) respectively. After incubation for 72 hr, the cell viability after 5-FU exposure was measured by the Countess (Invitrogen) system.

SMILES strings stand for the structures.

In the case of `C=CC[C@@H]1/C=C(\C)C[C@H](C)C[C@H](OC)[C@H]2O[C@@](O)(C(=O)C(=O)N3CCCC[C@H]3C(=O)O[C@H](/C(C)=C/[C@@H]3CC[C@@H](O)[C@H](OC)C3)[C@H](C)[C@@H](O)CC1=O)[C@H](C)C[C@@H]2OC` [FK506, FK506 (tacrolimus)], the “effect on the cell number” value in data set [1] (2nd V50-OKS cultures, FK506 25 μM, 5 days after passage) is “no significant effect”. In addition, the “total cell number amplification” value in data set [1] (2nd V50 cells adhesion cultured with FK506, 10 days) was “about 100 times”; in data set [1] (2nd V50 cells adhesion cultured with FK506, 15 days), “about 1000 times”.
On to `Cc1c[nH]c(-c2cnc(NCCNc3ccc(C#N)cn3)nc2-c2ccc(Cl)cc2Cl)n1` [CHIR99021], for which the “cellular localization of NFATc3-GFP” value in data set [2] is recorded as “nuclei”. Moreover, the “number of secondary dome-shaped colonies” value in data set [3] was “decreased”. For the same molecule, the “effect in flat plane adhesion culture (morphology, number of cells)” value in data set [1] is “the same effect as siRNA”. Also, the sphere forming ability result in data set [4] is “significantly suppressed”.
On to `O=c1[nH]cc(F)c(=O)[nH]1` [5-FU, 5-fluorouracil], for which, in data set [5], the “viability of 2nd V50-OKS-SW480 cells in the presence of 5-FU compared with parental SW480 cells” value is “significantly higher”.
For the molecule `CCCC(CCC)C(=O)O` [VPA, valproic acid], the “cellular localization of NFATc3-GFP” value in data set [2] is reported as “nuclei”. For the same molecule, the “number of secondary dome-shaped colonies” value in data set [3] is recorded as “decreased”. In addition, the “effect in flat plane adhesion culture (morphology, number of cells)” value in data set [1] is given as “the same effect as siRNA”. Also, the sphere forming ability entry in data set [4] was “significantly suppressed”.
